Assay results taken from PubChem BioAssay AID248 (DTP/NCI, 2004).
Values joined by “and” are separate entries in the source; they are usually repeats but may differ in a detail not shown here. Equal values may be shown once. Toxic doses and inconclusive results are not listed. No stated cut-off is given here; in the data, active means T/C of 150% or more; inactive means T/C below 125%.

System: L1210 leukemia ip in BDF1 mice, survival T/C
Experiment: NCI In Vivo Anticancer Drug Screen. Data for tumor model L1210 Leukemia (intraperitoneal) in B6D2F1 (BDF1) mice
Settings: endpoint: mean survival time, higher = longer survival
Procedure, shortened: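 Survival endpoint. Drug-treated group vs vehicle group, expressed as T divided by C. Tumor passaged by transplantation.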

[1] = dose: 100.0 mg/kg/injection, schedule: Q01DX001 (ip), vehicle: saline
[2] = dose: 12.5 mg/kg/injection, schedule: Q04DX002 (ip), vehicle: saline
[3] = dose: 25.0 mg/kg/injection, schedule: Q04DX002 (ip), vehicle: saline
[4] = dose: 50.0 mg/kg/injection, schedule: Q04DX002 (ip), vehicle: saline
[5] = dose: 100.0 mg/kg/injection, schedule: Q01DX009 (ip), vehicle: Klucel (hydroxypropylcellulose) (HPC)
[6] = dose: 200.0 mg/kg/injection, schedule: Q01DX009 (ip), vehicle: Klucel (hydroxypropylcellulose) (HPC)
[7] = dose: 75.0 mg/kg/injection, schedule: Q01DX001 (ip), vehicle: Klucel (hydroxypropylcellulose) (HPC)
[8] = dose: 150.0 mg/kg/injection, schedule: Q01DX001 (ip), vehicle: Klucel (hydroxypropylcellulose) (HPC)

Measured: T/C

COC(=O)[C@H]1[C@H]2C[C@@H]3c4[nH]c5cc(OC)ccc5c4CCN3C[C@H]2C[C@@H](OC(=O)c2cccc(N(C)C)c2)[C@@H]1OC
inactive: dose: 0.78 mg/kg/injection, schedule: Q01DX009 (ip), vehicle: Klucel (hydroxypropylcellulose) (HPC) 102 % of control | dose: 0.78 mg/kg/injection, schedule: Q04DX003 (ip), vehicle: Klucel (hydroxypropylcellulose) (HPC) 94 % of control | dose: 1.56 mg/kg/injection, schedule: Q01DX009 (ip), vehicle: Klucel (hydroxypropylcellulose) (HPC) 102 % of control | dose: 1.56 mg/kg/injection, schedule: Q04DX003 (ip), vehicle: Klucel (hydroxypropylcellulose) (HPC) 107 % of control | dose: 3.12 mg/kg/injection, schedule: Q01DX009 (ip), vehicle: Klucel (hydroxypropylcellulose) (HPC) 96 % of control | dose: 3.12 mg/kg/injection, schedule: Q04DX003 (ip), vehicle: Klucel (hydroxypropylcellulose) (HPC) 104 % of control | dose: 6.25 mg/kg/injection, schedule: Q01DX009 (ip), vehicle: Klucel (hydroxypropylcellulose) (HPC) 93 % of control | dose: 6.25 mg/kg/injection, schedule: Q04DX003 (ip), vehicle: Klucel (hydroxypropylcellulose) (HPC) 104 % of control | dose: 12.5 mg/kg/injection, schedule: Q04DX003 (ip), vehicle: Klucel (hydroxypropylcellulose) (HPC) 100 % of control

CC1(C)CCC(C)(C)c2c1ccc(O)c2Sc1c(O)ccc2c1C(C)(C)CCC2(C)C
inactive: [1] 87 % of control

CCc1nc(Cl)c(Cl)[nH]1
inactive: dose: 100.0 mg/kg/injection, schedule: Q01DX001 (ip), vehicle: saline with Tween-80 107 % of control | dose: 200.0 mg/kg/injection, schedule: Q01DX001 (ip), vehicle: saline with Tween-80 103 % of control

O=C(CCl)NCCCC1CCCCC1
inactive: [2] 100 % of control | [3] 96 % of control | [4] 104 % of control

CC1CCC(NC2=NCCO2)C(C)C1 (centres undefined)
inactive: dose: 100.0 mg/kg/injection, schedule: Q04DX003 (ip), vehicle: saline with Tween-80 91 % of control

COc1cc(/C=C/C(N)=O)cc(OC)c1OC
inactive: dose: 25.0 mg/kg/injection, schedule: Q01DX009 (ip), vehicle: Klucel (hydroxypropylcellulose) (HPC) 104 % of control | dose: 50.0 mg/kg/injection, schedule: Q01DX009 (ip), vehicle: Klucel (hydroxypropylcellulose) (HPC) 114 % of control | [5] 101 % of control | [6] 104 % of control | dose: 400.0 mg/kg/injection, schedule: Q01DX009 (ip), vehicle: Klucel (hydroxypropylcellulose) (HPC) 102 % of control

CNC(=O)Nc1cc(C)ccc1Cl
inactive: dose: 50.0 mg/kg/injection, schedule: Q01DX009 (ip), vehicle: carboxymethylcellulose (CMC) 95 % of control and 89 % of control | dose: 87.5 mg/kg/injection, schedule: Q04DX003 (ip), vehicle: carboxymethylcellulose (CMC) 101 % of control | dose: 100.0 mg/kg/injection, schedule: Q01DX001 (ip), vehicle: carboxymethylcellulose (CMC) 94 % of control | dose: 100.0 mg/kg/injection, schedule: Q04DX002 (ip), vehicle: carboxymethylcellulose (CMC) 100 % of control and 117 % of control | dose: 175.0 mg/kg/injection, schedule: Q04DX003 (ip), vehicle: carboxymethylcellulose (CMC) 93 % of control | dose: 200.0 mg/kg/injection, schedule: Q01DX001 (ip), vehicle: carboxymethylcellulose (CMC) 92 % of control | dose: 200.0 mg/kg/injection, schedule: Q04DX002 (ip), vehicle: carboxymethylcellulose (CMC) 100 % of control and 102 % of control | dose: 350.0 mg/kg/injection, schedule: Q04DX003 (ip), vehicle: carboxymethylcellulose (CMC) 104 % of control | dose: 400.0 mg/kg/injection, schedule: Q01DX001 (ip), vehicle: carboxymethylcellulose (CMC) 94 % of control | dose: 400.0 mg/kg/injection, schedule: Q01DX009 (ip), vehicle: carboxymethylcellulose (CMC) 93 % of control | dose: 400.0 mg/kg/injection, schedule: Q04DX002 (ip), vehicle: carboxymethylcellulose (CMC) 93 % of control and 96 % of control

O=C(NC(CSCc1ccccc1)C(=O)Oc1ccc([N+](=O)[O-])cc1)OCc1ccccc1 (centres undefined)
inactive: dose: 12.0 mg/kg/injection, schedule: Q01DX009 (ip), vehicle: gum acacia 91 % of control | dose: 25.0 mg/kg/injection, schedule: Q01DX009 (ip), vehicle: gum acacia 111 % of control | dose: 25.0 mg/kg/injection, schedule: Q04DX003 (ip), vehicle: gum acacia 91 % of control | dose: 50.0 mg/kg/injection, schedule: Q01DX009 (ip), vehicle: gum acacia 87 % of control | dose: 50.0 mg/kg/injection, schedule: Q04DX003 (ip), vehicle: gum acacia 88 % of control | dose: 100.0 mg/kg/injection, schedule: Q04DX003 (ip), vehicle: gum acacia 92 % of control

CCOC=Nc1c(C)c[n+]([O-])nc1OC
inactive: [2] 102 % of control | [3] 102 % of control | [4] 98 % of control

CSc1ccc(NC(=O)Sc2ccccc2C)cc1
inactive: [7] 95 % of control | dose: 75.0 mg/kg/injection, schedule: Q01DX009 (ip), vehicle: Klucel (hydroxypropylcellulose) (HPC) 93 % of control and 95 % of control | dose: 75.0 mg/kg/injection, schedule: Q04DX003 (ip), vehicle: Klucel (hydroxypropylcellulose) (HPC) 103 % of control | [5] 95 % of control and 103 % of control | dose: 100.0 mg/kg/injection, schedule: Q04DX002 (ip), vehicle: Klucel (hydroxypropylcellulose) (HPC) 98 % of control and 105 % of control | [8] 94 % of control | dose: 150.0 mg/kg/injection, schedule: Q01DX009 (ip), vehicle: Klucel (hydroxypropylcellulose) (HPC) 101 % of control | dose: 150.0 mg/kg/injection, schedule: Q04DX003 (ip), vehicle: Klucel (hydroxypropylcellulose) (HPC) 87 % of control | [6] 109 % of control | dose: 200.0 mg/kg/injection, schedule: Q04DX002 (ip), vehicle: Klucel (hydroxypropylcellulose) (HPC) 97 % of control | dose: 300.0 mg/kg/injection, schedule: Q01DX001 (ip), vehicle: Klucel (hydroxypropylcellulose) (HPC) 96 % of control | dose: 300.0 mg/kg/injection, schedule: Q01DX009 (ip), vehicle: Klucel (hydroxypropylcellulose) (HPC) 86 % of control and 88 % of control | dose: 300.0 mg/kg/injection, schedule: Q04DX003 (ip), vehicle: Klucel (hydroxypropylcellulose) (HPC) 91 % of control | dose: 400.0 mg/kg/injection, schedule: Q04DX002 (ip), vehicle: Klucel (hydroxypropylcellulose) (HPC) 93 % of control and 94 % of control

CSc1ncc2c(Cl)nn(C)c2n1
inactive: dose: 37.5 mg/kg/injection, schedule: Q01DX001 (ip), vehicle: Klucel (hydroxypropylcellulose) (HPC) 94 % of control | [7] 92 % of control | [8] 90 % of control

Cc1ccc([N+](=O)[O-])cc1NC(=O)COc1cc(Cl)c(Cl)cc1Cl
inactive: dose: 100.0 mg/kg/injection, schedule: Q01DX009 (ip), vehicle: saline with Tween-80 89 % of control | dose: 200.0 mg/kg/injection, schedule: Q01DX009 (ip), vehicle: saline with Tween-80 94 % of control | dose: 400.0 mg/kg/injection, schedule: Q01DX009 (ip), vehicle: saline with Tween-80 98 % of control

CSc1nc(NN(C)C)c2[nH]c(C)nc2n1
inactive: [1] 92 % of control | dose: 200.0 mg/kg/injection, schedule: Q01DX001 (ip), vehicle: saline 97 % of control

CCP(=O)(CC(=O)O)c1ccccc1 (centres undefined)
inactive: dose: 100.0 mg/kg/injection, schedule: Q04DX002 (ip), vehicle: saline with Tween-80 109 % of control | dose: 200.0 mg/kg/injection, schedule: Q04DX002 (ip), vehicle: saline with Tween-80 103 % of control | dose: 400.0 mg/kg/injection, schedule: Q04DX002 (ip), vehicle: saline with Tween-80 103 % of control

CCCNS(=O)(=O)c1cccc(C(N)=S)c1
inactive: dose: 100.0 mg/kg/injection, schedule: Q01DX001 (ip), vehicle: Klucel (hydroxypropylcellulose) (HPC) 101 % of control | dose: 200.0 mg/kg/injection, schedule: Q01DX001 (ip), vehicle: Klucel (hydroxypropylcellulose) (HPC) 100 % of control | dose: 400.0 mg/kg/injection, schedule: Q01DX001 (ip), vehicle: Klucel (hydroxypropylcellulose) (HPC) 103 % of control
